For series [1], the system named is NMC11060 cells. Put plainly: Mouse xenograft tumour assay (NMC). The series is classed as in vivo. As to conditions: QD for 21 days, NOD/SCID mouse, day 21. On the procedure:
1×10^7 NMC11060 cells, in 200 μl of 75% matrigel, were injected subcutaneously into each NOD/SCID mouse. Randomised oral administration of vehicle formulation, 1% Methycellulose (MC), or compound was initiated from the day tumour volume reached between 160-301 mm^3. Tumour volume was then measured every third day until either 21 days post inoculation or tumour volume had surpassed approximately 1000 mm^3.
Tumour growth inhibition=100−mean tumor volume of treatment group/mean tumour volume of control group×100. P values are derived from coefficient of variation analysis using software PASS 12, comparing vehicle against drug treated group. Based on day 21,* p<0.05, **p<0.01 and ***p<0.001

The target of series [2] is hERG (Homo sapiens, UniProt Q12809). Description: hERG liability. Background: hERG is a cardiac potassium channel; its block is linked to QT prolongation.
Sequence of hERG (Q12809 whole entry): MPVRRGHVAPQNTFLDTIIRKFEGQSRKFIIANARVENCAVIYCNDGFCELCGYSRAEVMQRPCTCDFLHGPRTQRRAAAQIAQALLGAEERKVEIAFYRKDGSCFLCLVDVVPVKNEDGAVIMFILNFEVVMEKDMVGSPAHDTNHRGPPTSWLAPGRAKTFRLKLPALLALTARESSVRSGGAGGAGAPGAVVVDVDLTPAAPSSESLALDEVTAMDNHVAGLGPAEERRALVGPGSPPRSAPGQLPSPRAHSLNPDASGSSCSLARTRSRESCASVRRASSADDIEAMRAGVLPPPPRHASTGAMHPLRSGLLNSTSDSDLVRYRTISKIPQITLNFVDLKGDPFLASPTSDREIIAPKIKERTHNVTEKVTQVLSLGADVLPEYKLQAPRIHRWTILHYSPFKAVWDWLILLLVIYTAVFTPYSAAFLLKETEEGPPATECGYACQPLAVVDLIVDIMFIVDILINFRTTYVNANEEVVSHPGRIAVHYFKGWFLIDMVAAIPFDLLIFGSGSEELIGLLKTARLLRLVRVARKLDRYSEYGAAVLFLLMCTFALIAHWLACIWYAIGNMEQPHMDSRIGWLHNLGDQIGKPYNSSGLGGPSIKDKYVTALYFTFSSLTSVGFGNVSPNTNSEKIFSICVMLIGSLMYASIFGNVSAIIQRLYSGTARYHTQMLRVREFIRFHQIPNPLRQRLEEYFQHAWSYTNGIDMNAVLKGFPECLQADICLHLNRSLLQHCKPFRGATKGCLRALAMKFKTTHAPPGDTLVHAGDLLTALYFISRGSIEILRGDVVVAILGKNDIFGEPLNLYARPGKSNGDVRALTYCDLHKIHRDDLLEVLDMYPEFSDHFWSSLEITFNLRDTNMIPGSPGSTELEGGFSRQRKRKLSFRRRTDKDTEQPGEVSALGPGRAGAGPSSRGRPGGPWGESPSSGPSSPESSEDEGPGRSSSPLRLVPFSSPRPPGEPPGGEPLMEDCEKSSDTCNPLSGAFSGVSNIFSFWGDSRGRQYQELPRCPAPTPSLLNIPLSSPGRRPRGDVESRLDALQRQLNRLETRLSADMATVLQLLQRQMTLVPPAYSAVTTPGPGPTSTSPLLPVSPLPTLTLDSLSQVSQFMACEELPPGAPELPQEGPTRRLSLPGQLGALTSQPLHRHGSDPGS
For series [3], the system named is interleukin-6 (IL-6). Description: LPS induced IL-6 production mouse assay. It is filed as in vivo. As to conditions: male CD1 mice; for IL-6 Cmax: LPS iv 1 hour after dosing. The protocol:
The compound was assayed for its ability to inhibit lipopolysaccharide (LPS) induced interleukin-6 (IL-6) production in mice. Male CD1 mice (Charles River Laboratories, 5 per group) received an intravenous challenge of LPS (100 μg/kg, L3192 E coli 0127:B8) 1 hour after oral administration of compound (in 1% (w/v) methylcellulose, aq 400). Serial blood samples were collected via teil vein up to 4 hours or via cardiac puncture at 6 hours (terminal sample) post oral drug administration and the serum harvested from the blood samples was frozen at −80° C. On the day of analysis, the serum was thawed to room temperature and levels of IL-6 were measured using single-spot cytokine assay plates (K152QXD) from Meso Scale Discovery (MSD, Gaithersburg, Md.). The levels of IL-6 were detected according to the manufacturer's protocol (MSD) and read on a SECTOR imager 6000 (MSD). The mean IL-6 Cmax and AUC0-t values were generated using WinNonlin Phoenix version 6.3 and the mean percent Cmax and AUC0-t IL-6 reduction following treatment with compound was calculated compared to the corresponding vehicle treated group. Levels of significance were calculated by analysis of variance (ANOVA) followed by Dunnett's multiple comparison t-test using Graphpad Prism version 5.04 (Graphpad Software, San Diego, Calif.). Statistical differences were determined as *P<0.05, **P<0.01.

Series [4] addresses cytochrome P450 3A4 (Homo sapiens, UniProt P08684). Put plainly: Cytochrome P450 3A4 metabolism dependent inhibition. The series is classed as in vitro ADME.
For series [5], the system named is multiple myeloma cells (OPM-2). Description: Cancer cell line proliferation assay, OPM-2. As to conditions: Homo sapiens, OPM-2 cells, 72 hours, CellTiter Glo, n = 2. It is filed as cell-based. The protocol: (§1) The impact of the compound of Examples 7 and 14 on cancer cell proliferation was determined using patient derived NUT midline carcinoma cells (11060), multiple myeloma cells (OPM-2, DSMZ) and biphenotypic B myelomonocytic leukaemia cells (MV-4-11, ATCC) in a 72 hour proliferation assay. 11060 and OPM-2 cells were maintained in RPMI 1640 medium (Invitrogen) supplemented with 10% HI-FBS (Heat-Inactivated Fetal Bovine Serum, Hyclone) and 2 mM L-glutamine (Invitrogen) at 37° C. and an atmosphere of 5% CO2. MV-4-11 cells were maintained in IMDM media supplemented with 10% HI-FCS, 2 mM L-glutamine, 1× Non-essential amino acids (Invitrogen) and 1× sodium pyruvate (1 mM) (Invitrogen). Cells were diluted to 1.11×10^5 cells/mL and 90 μL/well plated into black sided, clear bottomed 96 well tissue culture plates (Corning), using growth media supplemented with penicillin/streptomycin (Invitrogen). Cells were incubated overnight at 37° C. and in one plate, ATP levels were measured using the CellTiter Glo assay (Promega) according to the manufacturer's instructions, to give a baseline reading (t=0). 3-fold serial dilutions of compounds ranging from 6 mM to 0.3 μM were prepared in 100% DMSO. The DMSO dilution series was diluted 20-fold in growth media before 10 μl of the resulting dilutions were added to the appropriate wells of the remaining cell plates. The final compound concentrations in the wells ranged from 30 μM to 1.5 nM in 0.5% DMSO. Cells were incubated with compounds for 72 hours before assaying for ATP content using CellTiter Glo (t=72). CellTiter Glo data from each t=72 time point was normalised to the relevant t=0 time point data, and expressed as % t=0.

Series [6] concerns NUT midline carcinoma cells (11060). Put plainly: Cancer cell line proliferation assay, 11060. It is filed as cell-based. As to conditions: 11060 cells, 72 hours, CellTiter Glo, n = 3. The protocol:
as §1

[7] abbreviates: full curve fit, read-out: Cellular Proliferation: pIC50 (converted).
Setting [8] is: read-out: Cellular Proliferation: gpIC50 (converted).

Read-outs that look alike come from different tables or passages of the source. Marks after values point to notes of the source that are not given here.

Sequence of cytochrome P450 3A4 (P08684 whole entry): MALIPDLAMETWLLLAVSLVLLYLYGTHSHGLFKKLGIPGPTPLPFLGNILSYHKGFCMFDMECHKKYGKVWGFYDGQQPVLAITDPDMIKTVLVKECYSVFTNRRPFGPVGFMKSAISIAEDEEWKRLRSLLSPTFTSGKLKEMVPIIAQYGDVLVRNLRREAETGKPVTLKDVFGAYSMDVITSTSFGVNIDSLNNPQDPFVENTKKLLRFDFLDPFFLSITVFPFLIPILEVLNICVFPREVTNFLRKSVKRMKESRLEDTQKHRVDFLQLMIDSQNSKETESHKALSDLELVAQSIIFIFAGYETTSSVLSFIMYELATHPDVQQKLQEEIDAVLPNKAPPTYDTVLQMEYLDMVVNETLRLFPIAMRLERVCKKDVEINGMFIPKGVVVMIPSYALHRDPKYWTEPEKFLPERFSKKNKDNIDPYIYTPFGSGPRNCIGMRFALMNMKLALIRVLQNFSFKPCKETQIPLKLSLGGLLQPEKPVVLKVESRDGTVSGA

Turning to `CC(=O)N1c2ccc(C(N)=O)cc2[C@H](Nc2ncc(Cl)cn2)C[C@@H]1C` [Example 14, (2S,4R)-1-acetyl-4-((5-chloropyrimidin-2-yl)amino)-2-methyl-1,2,3,4-tetrahydroquinoline-6-carboxamide], the entries for the “% TGI” value in series [1] (10 mg/kg/day PO) and in series [1] (30 mg/kg/day PO) were 51* % and 93*** %, respectively. In addition, the hERG liability result in series [2] is reported as “no hERG liability”. Besides, the results for the “% reduction in IL-6 AUC from vehicle” value in series [3] (1 mg/kg oral), in series [3] (3 mg/kg oral) and in series [3] (10 mg/kg oral) were 49* %, 55** % and 48* %, respectively. Besides, the results for the “% reduction in IL-6 Cmax from vehicle” value in series [3] (1 mg/kg oral), in series [3] (3 mg/kg oral) and in series [3] (10 mg/kg oral) were 58%, 48% and 62* %, respectively. Further, the “IL-6 AUC0-t” value in series [3] (1 mg/kg oral) came to 554 ng·h/mL; in series [3] (3 mg/kg oral), 495 ng·h/mL; in series [3] (10 mg/kg oral), 563 ng·h/mL. Also, the “IL-6 Cmax” value in series [3] (1 mg/kg oral) was found to be 291 ng/mL; in series [3] (3 mg/kg oral), 357 ng/mL; in series [3] (10 mg/kg oral) it was 258 ng/mL. Further, in series [4], the “cytochrome P450 3A4 metabolism dependent inhibition” value is on record as “no cytochrome P450 3A4 metabolism dependent inhibition”. Further, the IC50 in series [5] (setting [7]) was 200 nM; in series [5] (setting [8]), 126 nM; in series [6] (setting [7]), 1000 nM; in series [6] (setting [8]) it was 631 nM.
